Data published in ChEMBL document CHEMBL5236606, “Synthesis, Structure-Activity Relationships, and In Vivo Evaluation of Novel C-17 Amine Derivatives Based on GSK3640254 as HIV-1 Maturation Inhibitors with Broad Spectrum Activity” (J Med Chem, 2022).

Assays:
[1] = system: Human immunodeficiency virus 1; assay: Antiviral activity against wild type HIV-1 NLRepRlucP373S infected in human MT2 cells assessed as inhibition of viral growth measured after 4 to 5 days by Dual luciferase reporter assay; type: functional, organism-based; settings: Human immunodeficiency virus 1, NLRepRlucP373S
[2] = system: Human immunodeficiency virus 1; assay: Antiviral activity against wild type HIV-1 NLRepRlucP373S infected in human MT2 cells assessed as inhibition of viral growth measured after 4 to 5 days in presence of 10% FBS and 40% human serum supplemented with 27 mg/mL of human serum albumin by Dual luciferase reporter assay; type: functional, organism-based; settings: Human immunodeficiency virus 1, NLRepRlucP373S
[3] = system: Human immunodeficiency virus 1; assay: Antiviral activity against wild type HIV-1 NLRepRlucP373S harboring T332S/V362I/prR41G mutant infected in human MT2 cells assessed as inhibition of viral growth measured after 4 to 5 days by Dual luciferase reporter assay; type: functional, organism-based; settings: Human immunodeficiency virus 1, NLRepRlucP373S
[4] = Fold resistance, ratio of EC50 for antiviral activity against wild type HIV-1 NLRepRlucP373S infected in human MT2 cells assessed as inhibition of viral growth in presence of 10% FBS and 40% human serum supplemented with 27mg/mL of human serum albumin to EC50 for antiviral activity against wild type HIV-1 NLRepRlucP373S infected in human MT2 cells assessed as inhibition of viral growth; type: functional, Human immunodeficiency virus 1
[5] = Cytotoxicity against human MT2 cells assessed as reduction in cell viability; type: toxicity, cell-based

| Structure (SMILES) | EC50 [1] [nM] | EC50 [2] [nM] | EC50 [3] [nM] | fold change (FC) [4] | CC50 [5] [nM] |
| --- | --- | --- | --- | --- | --- |
| C=C(C)[C@@H]1CC[C@]2(NCCN3CCN(S(C)(=O)=O)CC3)CC[C@]3(C)[C@H](CC[C@@H]4[C@@]5(C)CC=C(C6=CC[C@](CF)(C(=O)O)CC6)C(C)(C)[C@@H]5CC[C@]43C)[C@@H]12 | 2 | 18 | 5.7 | 9 | 11400 |
| C=C(C)[C@@H]1CC[C@]2(NCC[C@]3(O)CC[C@@](C)(O)CC3)CC[C@]3(C)[C@H](CC[C@@H]4[C@@]5(C)CC=C(C6=CC[C@](CF)(C(=O)O)CC6)C(C)(C)[C@@H]5CC[C@]43C)[C@@H]12 | 1.7 | 16 | 6.1 | 9.8 | 18000 |
| C=C(C)[C@@H]1CC[C@]2(NCCC3CCOCC3)CC[C@]3(C)[C@H](CC[C@@H]4[C@@]5(C)CC=C(C6=CC[C@](CF)(C(=O)O)CC6)C(C)(C)[C@@H]5CC[C@]43C)[C@@H]12 | 30 | 980 | 160 | 33 | 13000 |
| C=C(C)[C@@H]1CC[C@]2(NCCC3(O)CCN(C(C)=O)CC3)CC[C@]3(C)[C@H](CC[C@@H]4[C@@]5(C)CC=C(C6=CC[C@](CF)(C(=O)O)CC6)C(C)(C)[C@@H]5CC[C@]43C)[C@@H]12 | 1.7 | 24 | 6.7 | 14 | 14000 |
| C=C(C)[C@@H]1CC[C@]2(NCCN3CCS(=O)(=O)CC3)CC[C@]3(C)[C@H](CC[C@@H]4[C@@]5(C)CC=C(C6=CCC(CF)(C(=O)O)CC6)C(C)(C)[C@@H]5CC[C@]43C)[C@@H]12 (single isomer, unassigned) | – | – | – | 3.3 | – |
| C=C(C)[C@@H]1CC[C@]2(NCCC3(O)CCS(=O)(=O)CC3)CC[C@]3(C)[C@H](CC[C@@H]4[C@@]5(C)CC=C(C6=CC[C@](CF)(C(=O)O)CC6)C(C)(C)[C@@H]5CC[C@]43C)[C@@H]12 | 2.3 | 19 | 7.7 | 83 | 14000 |
| C=C(C)[C@@H]1CC[C@]2(NCCC3(O)COC3)CC[C@]3(C)[C@H](CC[C@@H]4[C@@]5(C)CC=C(C6=CC[C@@](CF)(C(=O)O)CC6)C(C)(C)[C@@H]5CC[C@]43C)[C@@H]12 | 1.9 | 27 | 12 | 14 | 13000 |
| C=C(C)[C@@H]1CC[C@]2(NCCC(C)(C)O)CC[C@]3(C)[C@H](CC[C@@H]4[C@@]5(C)CC=C(C6=CC[C@](CF)(C(=O)O)CC6)C(C)(C)[C@@H]5CC[C@]43C)[C@@H]12 | 1.9 | 26 | 8.3 | 14 | 8300 |
| C=C(C)[C@@H]1CC[C@]2(NCCC3(O)CCN(S(C)(=O)=O)CC3)CC[C@]3(C)[C@H](CC[C@@H]4[C@@]5(C)CC=C(C6=CC[C@](CF)(C(=O)O)CC6)C(C)(C)[C@@H]5CC[C@]43C)[C@@H]12 | 2.6 | 19 | 8.3 | 73 | 23000 |
| C=C(C)[C@@H]1CC[C@]2(NCCC3CCS(=O)(=O)CC3)CC[C@]3(C)[C@H](CC[C@@H]4[C@@]5(C)CC=C(C6=CC[C@](CF)(C(=O)O)CC6)C(C)(C)[C@@H]5CC[C@]43C)[C@@H]12 | 3.9 | 54 | 14 | 14 | 14000 |
| C=C(C)[C@@H]1CC[C@]2(NCC[C@]3(O)CC[C@](C)(O)CC3)CC[C@]3(C)[C@H](CC[C@@H]4[C@@]5(C)CC=C(C6=CC[C@@](CF)(C(=O)O)CC6)C(C)(C)[C@@H]5CC[C@]43C)[C@@H]12 | 3 | 14 | 9.2 | 4.6 | 11000 |
| C=C(C)[C@@H]1CC[C@]2(NCC[C@]3(O)CC[C@@H](S(C)(=O)=O)CC3)CC[C@]3(C)[C@H](CC[C@@H]4[C@@]5(C)CC=C(C6=CC[C@@](CF)(C(=O)O)CC6)C(C)(C)[C@@H]5CC[C@]43C)[C@@H]12 | 2.3 | 30 | 6.5 | 13 | 17000 |
| C=C(C)[C@@H]1CC[C@]2(NCCN3CCOCC3)CC[C@]3(C)[C@H](CC[C@@H]4[C@@]5(C)CC=C(C6=CC[C@](CF)(C(=O)O)CC6)C(C)(C)[C@@H]5CC[C@]43C)[C@@H]12 | 4.5 | 53 | 18 | 12 | 7700 |
| C=C(C)[C@@H]1CC[C@]2(NCC(C)(C)O)CC[C@]3(C)[C@H](CC[C@@H]4[C@@]5(C)CC=C(C6=CC[C@](CF)(C(=O)O)CC6)C(C)(C)[C@@H]5CC[C@]43C)[C@@H]12 | 15 | 147 | 50 | 9.7 | 8700 |
| C=C(C)[C@@H]1CC[C@]2(NCC[C@]3(O)CC[C@H](S(C)(=O)=O)CC3)CC[C@]3(C)[C@H](CC[C@@H]4[C@@]5(C)CC=C(C6=CC[C@](CF)(C(=O)O)CC6)C(C)(C)[C@@H]5CC[C@]43C)[C@@H]12 | 1.5 | 5.9 | 4.6 | 4.1 | 16000 |
| C=C(C)[C@@H]1CC[C@]2(NCCCC(C)(C)O)CC[C@]3(C)[C@H](CC[C@@H]4[C@@]5(C)CC=C(C6=CC[C@](CF)(C(=O)O)CC6)C(C)(C)[C@@H]5CC[C@]43C)[C@@H]12 | 14 | 84 | 44 | 6.3 | 7500 |
| C=C(C)[C@@H]1CC[C@]2(NCCC3(O)CCC3)CC[C@]3(C)[C@H](CC[C@@H]4[C@@]5(C)CC=C(C6=CC[C@](CF)(C(=O)O)CC6)C(C)(C)[C@@H]5CC[C@]43C)[C@@H]12 | 5.6 | 36 | 16 | 6.4 | 12000 |
| C=C(C)[C@@H]1CC[C@]2(NCCC(C)C)CC[C@]3(C)[C@H](CC[C@@H]4[C@@]5(C)CC=C(C6=CC[C@](CF)(C(=O)O)CC6)C(C)(C)[C@@H]5CC[C@]43C)[C@@H]12 | 120 | 1760 | 930 | 15 | 16000 |
| C=C(C)[C@@H]1CC[C@]2(NCCN3CCC(C)(O)CC3)CC[C@]3(C)[C@H](CC[C@@H]4[C@@]5(C)CC=C(C6=CC[C@](CF)(C(=O)O)CC6)C(C)(C)[C@@H]5CC[C@]43C)[C@@H]12 | 1.2 | 19 | 5.6 | 16 | 14000 |
| C=C(C)[C@@H]1CC[C@]2(NCCC3(O)CCOCC3)CC[C@]3(C)[C@H](CC[C@@H]4[C@@]5(C)CC=C(C6=CC[C@](CF)(C(=O)O)CC6)C(C)(C)[C@@H]5CC[C@]43C)[C@@H]12 | 2 | 30 | 8.2 | 15 | 9500 |
